# Reference: US8541379B2 (Ajinomoto Co., Inc., priority 2009, dated 2013)
# Starred links: 1 amine or outer side, 2 acyl side, 3 side chain; linkers in the order of their positions; H or OH if unused. Non-standard residues stand in square brackets, D forms with d. No end group written: not given here. γGlu = O=C(O)[C@H](CCC(=O)[*:2])N[*:1]
# Experiments:
# [1] = Quantitative sensory evaluation test of kokumi-imparting activity; type: in vivo, human; settings: n=4; for Intensity of kokumi, Initial Taste: scale control 0, strong 3, very strong 5
# Experimental: This quantitative sensory evaluation test was carried out according to the following procedures: The intensity of the kokumi-imparting activity observed for each test compound was determined as a value observed when blending 0.00001 to 0.5 g/dL of the corresponding test compound with the distilled water containing sodium glutamate (0.05 g/dL), inosinic acid monophosphate (0.05 g/dL), and sodium chloride (0.5 g/dL). […] The evaluation criteria are assumed to be as follows: control: 0 point; strong: 3 points; very strong: 5 points. Moreover, to clarify the criteria, the initial taste and the middle/after taste of γ-Glu-Val-Gly were set at 3.0 points, respectively. The scoring or rating was carried out using the method of line scale and more specifically, it was carried out by writing each corresponding score on a straight line on which points corresponding to −5˜0˜5 had been indicated. The panelists used in this test were defined to be persons who had been engaged in the development of seasonings for foods over not less than one year of the cumulative time period and who could judge that the difference in the titer between γ-Glu-Cys-Gly and γ-Glu-Val-Gly added to a solution having umami/salty taste is about 10 times (while confirming the ability of these persons at regular intervals). The evaluation was carried out at n (the number of panelists used)=4. The term “initial taste” means the taste which develops from 0 to 2 seconds after the sample is placed in the panelist's mouth, while the term “middle/after taste” means the taste which develops thereafter.
# In addition, γ-Glu-Val-Gly, γ-Glu-Cys, γ-Glu-Val, γ-Glu-Ala and γ-Glu-Ser were likewise inspected for their kokumi-imparting effect according to the same procedures used above.
# human CaSR = target: T1, human CaSR (Homo sapiens, UniProt P41180, E1011Q); assay: Evaluation of CaSR agonist activity (Ca2+ fluorescence, hCaSR-transfected 293E cells); type: cell-based; settings: 293E cells transfected with hCaSR/pcDNA3.1, Calcium 4 fluorescence, FLEX Station
# T1 construct: expressed in transfected cells; host or cells: 293E cells (EBNA1-expressing HEK293, ATCC CRL-10852), transient transfection with Fugene6
# T1 sequence (P41180 20-1078 E1011Q): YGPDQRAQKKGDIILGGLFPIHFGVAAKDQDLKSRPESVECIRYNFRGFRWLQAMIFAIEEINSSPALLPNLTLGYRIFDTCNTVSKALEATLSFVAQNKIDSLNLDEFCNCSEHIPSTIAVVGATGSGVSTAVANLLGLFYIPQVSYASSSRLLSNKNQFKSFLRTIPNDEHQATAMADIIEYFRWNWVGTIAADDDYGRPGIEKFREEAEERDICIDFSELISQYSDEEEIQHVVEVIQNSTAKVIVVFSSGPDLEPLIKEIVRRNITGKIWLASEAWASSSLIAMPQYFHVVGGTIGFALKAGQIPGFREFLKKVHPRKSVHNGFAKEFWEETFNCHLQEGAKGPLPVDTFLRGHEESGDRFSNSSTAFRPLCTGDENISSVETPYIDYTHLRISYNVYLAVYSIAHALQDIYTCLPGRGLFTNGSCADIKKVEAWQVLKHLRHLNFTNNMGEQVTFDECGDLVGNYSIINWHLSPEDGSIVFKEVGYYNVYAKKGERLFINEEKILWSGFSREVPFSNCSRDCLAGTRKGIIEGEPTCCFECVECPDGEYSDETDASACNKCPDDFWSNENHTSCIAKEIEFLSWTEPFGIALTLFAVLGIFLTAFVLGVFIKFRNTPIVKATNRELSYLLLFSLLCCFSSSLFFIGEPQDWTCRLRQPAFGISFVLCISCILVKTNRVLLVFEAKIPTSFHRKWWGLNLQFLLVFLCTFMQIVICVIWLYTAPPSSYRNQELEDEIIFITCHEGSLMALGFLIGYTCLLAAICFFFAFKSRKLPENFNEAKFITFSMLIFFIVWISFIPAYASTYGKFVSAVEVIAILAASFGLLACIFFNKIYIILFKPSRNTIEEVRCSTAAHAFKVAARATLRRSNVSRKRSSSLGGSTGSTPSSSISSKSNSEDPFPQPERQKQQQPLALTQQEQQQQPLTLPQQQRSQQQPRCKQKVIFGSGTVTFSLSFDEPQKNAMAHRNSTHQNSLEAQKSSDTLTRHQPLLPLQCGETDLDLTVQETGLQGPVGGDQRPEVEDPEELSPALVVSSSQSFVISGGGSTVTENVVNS
# Experimental: 293E Cells (EBNA1-expresion HEK293 cells, ATCC No. CRL-10852) were cultivated in DMEN/Ham's-F12 (3.15/mL glucose-containing Dulbecco's modified Eagle medium, available from Nakaraitesk Company) supplemented with 10% fetal calf serum, in the presence of 200 μg/mL of G418 (available from Genetisin). The cultured cells were inoculated in F25 flask at a density of 3×10^6 cells/10 mL, the flask was allowed to stand over 24 hours in a CO2 incubator (5% CO2, 37° C.), and then the human CaSR-expression plasmid hCaSR/pcDNA3.1 was transformed or transfected with a reagent for transfection Fugene6 (available from Roche Company). The transfected plasmid was maintained in a CO2 incubator for 6 to 7 hours, then the cells were recovered using a 10% fetal calf serum-containing DMEM/Ham's-F12 and the cells were inoculated in each well of a poly-D-lysine coat 96-well plate (BD-Biocoat) at a density of 70,000 cells/well.
# To each well of the 96-well plate, each test compound was dissolved in a 0.1% BSA-containing Assay Buffer in an amount of 50 μl/well, and then any change of the intensity of fluorescence was monitored over 3 minutes using FLEX Station (available from Molecular Devices Company).
# Method for the Determination of EC50:
# The difference (RFU (Max-Min)) between the maximum and minimum fluorescent intensities observed for each well before and after the addition of each specific test compound was determined by the automatic calculation using FLEX Station. The activity rate was calculated while the RFU (Max-Min) value observed when adding the compound at the maximum concentration was defined to be 100% and the RFU (Max-Min) value observed when using the 0.1% BSA-containing Assay Buffer free of any test compound was defined to be 0%, followed by subjecting the resulting data to the curve-fitting procedures using the spreadsheet software Xfit or Graph-Pad-Prism to thus determine the EC50 which was the concentration of the compound at the activity rate of 50%.
# In addition, the same EC50-determining procedures used above were repeated except for using other dipeptides as Comparative Examples.
# [2] = 0.001 g/dL in water with MSG 0.05, IMP 0.05, NaCl 0.5 g/dL, reference set at 3.0
# [3] = 0.01 g/dL in umami/salty solution
# [4] = 0.01 g/dL in water with MSG 0.05, IMP 0.05, NaCl 0.5 g/dL
# [5] = 0.2 g/dL in water with MSG 0.05, IMP 0.05, NaCl 0.5 g/dL
compound,measurement,setting,value
[γGlu]-Val-Gly,"Intensity of kokumi, Middle/After Taste",[1]; [2],3.0 points
same,"Intensity of kokumi, Initial Taste",[1]; [2],3.0 points
C[C@@H](O)[C@H](NC(=O)CC[C@H](N)C(=O)O)C(=O)O [γ-Glu-Thr],EC50,human CaSR,6.97 µM
"CCCC[C@H](NC(=O)CC[C@H](N)C(=O)O)C(=O)O [γ-Glu-Nle, γ-L-glutamyl-L-norleucine]",EC50,human CaSR,4.41 µM
CC(C)(NC(=O)CC[C@H](N)C(=O)O)C(=O)O [γ-Glu-Aib],EC50,human CaSR,15.4 µM
CC(C)(C)[C@H](NC(=O)CC[C@H](N)C(=O)O)C(=O)O [γ-Glu-tLeu],EC50,human CaSR,3.06 µM
N[C@@H](CCC(=O)N[C@@H](CS)C(=O)O)C(=O)O [γ-Glu-Cys],Sensory Evaluation Profile,[1]; [3],Mainly the middle and after tastes
same,"Intensity of kokumi, Middle/After Taste",[1]; [4],3.1 points
same,"Intensity of kokumi, Initial Taste",[1]; [4],3.1 points
same,EC50,human CaSR,0.16 µM
N[C@@H](CCC(=O)N[C@@H](CO)C(=O)O)C(=O)O [γ-Glu-Ser],"Intensity of kokumi, Middle/After Taste",[1]; [5],3.0 points
same,"Intensity of kokumi, Initial Taste",[1]; [5],3.6 points
same,EC50,human CaSR,11 µM
CC(C)[C@H](NC(=O)CC[C@H](N)C(=O)O)C(=O)O [γ-Glu-Val],Sensory Evaluation Profile,[1]; [3],The after taste was quite weak.
same,"Intensity of kokumi, Middle/After Taste",[1]; [4],2.4 points
same,"Intensity of kokumi, Initial Taste",[1]; [4],3.1 points
same,EC50,human CaSR,1.03 µM
CC[C@H](NC(=O)CC[C@H](N)C(=O)O)C(=O)O,EC50,human CaSR,0.21 µM
C[C@H](NC(=O)CC[C@H](N)C(=O)O)C(=O)O [γ-Glu-Ala],Sensory Evaluation Profile,[1]; 0.2 g/dL in umami/salty solution,Mainly the tastes similar to the sour
same,"Intensity of kokumi, Middle/After Taste",[1]; [5],4.3 points
same,"Intensity of kokumi, Initial Taste",[1]; [5],4.5 points
same,EC50,human CaSR,1.24 µM
